Results as given in US20210403485A1, “PYRAZOLOPYRIMIDINE DERIVATIVE AS SELECTIVE TRK INHIBITOR” (SHANDONG LUYE PHARMACEUTICAL CO., LTD., priority 2018, published 2021).

How the values were obtained:
ALK = target: T1, ALK (Homo sapiens, UniProt Q9UM73); test: Kinase inhibitory activity (33P-ATP, filtration-binding method, Reaction Biology Corp.); format: biochemical; settings: read-out: Half maximal inhibitory concentration IC50 for kinases, ALK
T1 construct: purchased Reaction Biology Corp
Description: (§1) The mixture was incubated at room temperature for 20 minutes, added with ^33P-ATP at a certain concentration to start the reaction, and then incubated at room temperature for 120 minutes. Finally, the radioactivity of the reactant was detected by the filtration-binding method. The final kinase activity was expressed as the ratio of the remaining kinase activity in the test sample to the kinase activity of the DMSO control. The dose-response curves were fitted and IC50 values were calculated by GraphPad software.

Ros1 = target: T2, Ros1 (Homo sapiens, UniProt P08922); test: as above; format: biochemical; settings: read-out: Half maximal inhibitory concentration IC50 for kinases, Ros1
T2 construct: purchased Reaction Biology Corp
Description: as §1

TrkA = target: T3, TrkA (Homo sapiens, UniProt P04629); test: as above; format: biochemical; settings: read-out: Half maximal inhibitory concentration IC50 for kinases, TrkA
T3 construct: purchased Reaction Biology Corp
T3 sequence (P04629 33-796): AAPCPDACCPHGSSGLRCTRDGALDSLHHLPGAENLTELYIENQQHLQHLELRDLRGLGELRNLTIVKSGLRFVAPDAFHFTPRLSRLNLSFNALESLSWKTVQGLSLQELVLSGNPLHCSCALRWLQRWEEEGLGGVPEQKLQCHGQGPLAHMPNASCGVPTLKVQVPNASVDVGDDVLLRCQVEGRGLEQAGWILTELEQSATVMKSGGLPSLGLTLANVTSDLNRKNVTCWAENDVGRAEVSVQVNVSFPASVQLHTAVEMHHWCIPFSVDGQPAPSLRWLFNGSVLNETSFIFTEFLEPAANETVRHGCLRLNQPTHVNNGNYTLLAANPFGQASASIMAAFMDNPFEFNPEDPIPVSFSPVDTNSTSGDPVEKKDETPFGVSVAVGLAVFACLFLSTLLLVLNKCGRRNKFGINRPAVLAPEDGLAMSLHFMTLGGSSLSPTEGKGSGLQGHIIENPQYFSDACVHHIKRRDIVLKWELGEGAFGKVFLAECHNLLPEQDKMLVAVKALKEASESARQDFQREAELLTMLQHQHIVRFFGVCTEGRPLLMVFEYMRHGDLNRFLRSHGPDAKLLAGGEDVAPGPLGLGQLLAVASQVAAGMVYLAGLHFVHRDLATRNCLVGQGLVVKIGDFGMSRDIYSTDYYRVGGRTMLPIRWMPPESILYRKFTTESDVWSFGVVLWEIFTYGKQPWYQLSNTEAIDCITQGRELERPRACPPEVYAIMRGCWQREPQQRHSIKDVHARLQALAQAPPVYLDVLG
Description: as §1

TrkA-G595R = target: T4, TrkA-G595R (Homo sapiens, UniProt P04629, G595R); test: as above; format: biochemical; settings: read-out: Half maximal inhibitory concentration IC50 for kinases, TrkA-G595R
T4 construct: purchased Reaction Biology Corp
T4 sequence (P04629 33-796 G595R): as the sequence (P04629 33-796) above, with G563R counted along it
Description: as §1

TrkA-G667C = target: T5, TrkA-G667C (Homo sapiens, UniProt P04629, G667C); test: as above; format: biochemical; settings: read-out: Half maximal inhibitory concentration IC50 for kinases, TrkA-G667C
T5 construct: purchased Reaction Biology Corp
Description: as §1

TrkC = target: T6, TrkC (Homo sapiens, UniProt Q16288); test: as above; format: biochemical; settings: read-out: Half maximal inhibitory concentration IC50 for kinases, TrkC
T6 construct: purchased Reaction Biology Corp
Description: as §1

Ba/F3 LMNA-NTRK1-F589L = target: T7, Ba/F3 LMNA-NTRK1-F589L (Homo sapiens, UniProt P04629, F589L, cells depend on it); test: Inhibitory activity against cell proliferation (CellTiter-Glo, 72 hours); format: cell-based; settings: read-out: Half maximal inhibitory concentration IC50 of cells, Ba/F3 LMNA-NTRK1-F589L
T7 construct: fused on or other part: N-terminal part of LMNA as fusion partner (part of the key); P02545 (Prelamin-A/C)
Description: (§2) Adenosine Triphosphate (ATP) is an energy carrier commonly used in various life activities in nature, and is the minimum unit for energy storage and transfer. The CellTiter-Glo™ cell viability assay kit uses luciferase as an assay agent, which requires the involvement of ATP in luminescence. The CellTiter-Glo™ reagent is added into cell culture medium to measure the luminescence value. The luminescence signal is directly proportional to the amount of ATP in the system, and the ATP is positively correlated with the number of viable cells. Therefore, the proliferation of cells can be detected by detecting the ATP content using the CellTiter-Glo kit.
(§3) a) Cells in the logarithmic growth phase were collected and counted using a […]. The cell viability was detected by the trypan blue exclusion method, and the cell viability was kept over 90%.
(§4) b) The cell concentration was adjusted; 90 μL of the cell suspension was added to a 96-well plate.
(§5) a) A 10-fold compound solution was prepared, with the highest concentration being 10 μM (a total of 9 concentrations, 3-fold dilution). 10 μL of compound solution was added to each well of a 96-well plate inoculated with cells, and three duplicate wells were set for each compound concentration.
(§6) a) The CTG reagent was thawed and the cell plate was equilibrated to room temperature for 30 minutes.
(§7) b) An equal volume of CTG solution was added to each well.
(§8) c) The plate was shaken on an orbital shaker for 5 minutes to lyse the cells.
(§9) d) The cell plate was placed at room temperature for 20 minutes to stabilize the luminescence signal.
(§10) e) The luminescence value was read.
(§11) The data were analyzed using GraphPad Prism 5.0 software, fitted with nonlinear S-curve regression to give dose-response curves, and IC50 values were calculated therefrom.

Ba/F3 LMNA-NTRK1-WT = target: T8, Ba/F3 LMNA-NTRK1-WT (Homo sapiens, UniProt P04629); test: as above; format: cell-based; settings: read-out: Half maximal inhibitory concentration IC50 of cells, Ba/F3 LMNA-NTRK1-WT
T8 construct: fused on or other part: N-terminal part of LMNA as fusion partner (part of the key); P02545 (Prelamin-A/C)
Description: as §2, §3, §4, §5, §6, §7, §8, §9, §10, §11

Ba/F3 SLC34A2-ROS1-WT = target: T9, Ba/F3 SLC34A2-ROS1-WT (Homo sapiens, UniProt P08922); test: as above; format: cell-based; settings: read-out: Half maximal inhibitory concentration IC50 of cells, Ba/F3 SLC34A2-ROS1-WT
T9 construct: fused on or other part: N-terminal part of SLC34A2 as fusion partner (part of the key); O95436 (Sodium-dependent phosphate transport protein 2B)
Description: as §2, §3, §4, §5, §6, §7, §8, §9, §10, §11

BaF3 ETV6-NTRK3-WT = target: T10, BaF3 ETV6-NTRK3-WT (Homo sapiens, UniProt Q16288); test: as above; format: cell-based; settings: read-out: Half maximal inhibitory concentration IC50 of cells, BaF3 ETV6-NTRK3-WT
T10 construct: fused on or other part: N-terminal part of ETV6 (TEL) as fusion partner (part of the key); P41212 (Transcription factor ETV6)
Description: as §2, §3, §4, §5, §6, §7, §8, §9, §10, §11

BaF3 LMNA-NTRK1-G595R = target: T11, BaF3 LMNA-NTRK1-G595R (Homo sapiens, UniProt P04629, G595R, cells depend on it); test: as above; format: cell-based; settings: read-out: Half maximal inhibitory concentration IC50 of cells, BaF3 LMNA-NTRK1-G595R
T11 construct: fused on or other part: N-terminal part of LMNA as fusion partner (part of the key); P02545 (Prelamin-A/C)
Description: as §2, §3, §4, §5, §6, §7, §8, §9, §10, §11

BaF3 LMNA-NTRK1-G667A = target: T12, BaF3 LMNA-NTRK1-G667A (Homo sapiens, UniProt P04629, G667A, cells depend on it); test: as above; format: cell-based; settings: read-out: Half maximal inhibitory concentration IC50 of cells, BaF3 LMNA-NTRK1-G667A
T12 construct: fused on or other part: N-terminal part of LMNA as fusion partner (part of the key); P02545 (Prelamin-A/C)
T12 sequence (P04629 whole entry G667A, the tested form may be a part): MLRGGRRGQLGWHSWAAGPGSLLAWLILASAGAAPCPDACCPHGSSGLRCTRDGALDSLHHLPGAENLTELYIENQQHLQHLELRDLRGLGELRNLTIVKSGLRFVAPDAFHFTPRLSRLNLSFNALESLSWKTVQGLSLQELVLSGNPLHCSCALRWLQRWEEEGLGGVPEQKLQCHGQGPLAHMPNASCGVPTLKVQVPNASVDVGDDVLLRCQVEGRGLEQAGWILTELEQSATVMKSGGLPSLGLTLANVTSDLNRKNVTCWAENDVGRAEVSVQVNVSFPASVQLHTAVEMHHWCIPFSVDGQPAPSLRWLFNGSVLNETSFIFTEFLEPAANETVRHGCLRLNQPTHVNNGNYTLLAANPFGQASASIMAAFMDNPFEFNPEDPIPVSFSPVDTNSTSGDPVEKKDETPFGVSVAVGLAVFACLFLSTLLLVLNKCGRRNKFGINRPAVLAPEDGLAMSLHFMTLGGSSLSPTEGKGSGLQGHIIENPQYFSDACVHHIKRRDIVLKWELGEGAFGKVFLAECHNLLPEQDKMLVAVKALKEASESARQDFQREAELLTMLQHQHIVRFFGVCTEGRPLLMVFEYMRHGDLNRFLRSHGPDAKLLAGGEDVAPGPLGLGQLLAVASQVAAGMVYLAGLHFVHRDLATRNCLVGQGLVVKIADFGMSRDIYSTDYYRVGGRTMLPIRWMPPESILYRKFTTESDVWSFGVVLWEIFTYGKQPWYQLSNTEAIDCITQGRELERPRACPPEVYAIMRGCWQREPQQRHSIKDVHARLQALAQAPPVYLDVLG
Description: as §2, §3, §4, §5, §6, §7, §8, §9, §10, §11

BaF3 ETV6-NTRK3-G623R = target: T13, BaF3 ETV6-NTRK3-G623R (Homo sapiens, UniProt Q16288, G623R, cells depend on it); test: as above; format: cell-based; settings: read-out: Half maximal inhibitory concentration IC50 of cells, BaF3 ETV6-NTRK3-G623R
T13 construct: fused on or other part: N-terminal part of ETV6 (TEL) as fusion partner (part of the key); P41212 (Transcription factor ETV6)
T13 sequence (Q16288 whole entry G623R, the tested form may be a part): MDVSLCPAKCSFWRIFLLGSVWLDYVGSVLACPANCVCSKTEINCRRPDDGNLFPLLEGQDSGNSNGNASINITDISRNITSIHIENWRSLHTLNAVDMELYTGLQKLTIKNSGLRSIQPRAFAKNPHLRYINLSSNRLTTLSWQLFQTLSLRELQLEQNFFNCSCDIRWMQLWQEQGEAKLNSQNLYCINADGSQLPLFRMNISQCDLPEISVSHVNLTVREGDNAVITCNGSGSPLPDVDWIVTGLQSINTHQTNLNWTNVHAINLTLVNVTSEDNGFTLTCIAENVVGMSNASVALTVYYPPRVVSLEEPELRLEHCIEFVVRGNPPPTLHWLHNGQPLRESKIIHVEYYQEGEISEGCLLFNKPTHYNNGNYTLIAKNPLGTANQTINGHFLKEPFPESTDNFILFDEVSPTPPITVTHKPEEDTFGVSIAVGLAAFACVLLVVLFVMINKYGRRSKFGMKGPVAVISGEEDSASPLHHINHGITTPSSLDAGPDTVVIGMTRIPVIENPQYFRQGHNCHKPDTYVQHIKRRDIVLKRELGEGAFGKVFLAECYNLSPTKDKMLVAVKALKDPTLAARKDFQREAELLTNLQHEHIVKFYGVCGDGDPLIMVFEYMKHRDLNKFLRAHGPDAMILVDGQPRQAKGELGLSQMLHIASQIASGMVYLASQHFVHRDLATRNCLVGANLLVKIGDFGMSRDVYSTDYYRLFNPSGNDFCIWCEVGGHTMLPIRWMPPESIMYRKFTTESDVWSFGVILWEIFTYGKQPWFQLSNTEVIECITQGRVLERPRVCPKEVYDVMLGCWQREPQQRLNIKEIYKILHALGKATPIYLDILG
Description: as §2, with “kit. In this test, the cell lines used are Ba/F3 LMNA-NTRK1-WT, Ba/F3 LMNA-NTRK1-F589L, BaF3 LMNA-NTRK1-G595R, BaF3 LMNA-NTRK1-G667A, BaF3 ETV6-NTRK3-WT, BaF3 ETV6-NTRK3-G623R, and Ba/F3 SLC34A2-ROS1-WT stable cell strains, 5000 cells/well.” for “kit.”
as §3, §4
c) Cells in the 96-well plate were incubated overnight at 37° C. with 5% CO2 and 95% humidity.
as §5
b) The cells in the 96-well plate added with compound were incubated for 72 hours at 37° C. with 5% CO2 and 95% humidity, followed by the CTG (CellTiter-Glo) analysis.
as §6, §7, §8, §9, §10, §11

[1] = Pharmacokinetic test of compounds in rats (plasma, LC/MS/MS); format: in vivo, male SD rats; settings: for Cmax: read-out: Peak concentration Cmax
Description: Experimental purpose: male SD rats aged 7-9 weeks were selected as test animals, and the drug concentrations of the compounds in plasma at different time points after single intravenous injection (IV) and intragastric administration (PO) of the compounds were measured by an LC/MS/MS method, so that the pharmacokinetic behavior of the compounds disclosed herein in rats was studied, and the pharmacokinetic characteristic of the compounds was evaluated.
Drug preparation: the compounds were all prepared into clear solution by taking 5% DMSO+10% solutol+85% water as vehicle, and were used for administration in IV and PO groups. The dose of each compound administered was: IV, 3 mg/kg; PO, 10 mg/kg.

T1 sequence (Q9UM73 19-1620): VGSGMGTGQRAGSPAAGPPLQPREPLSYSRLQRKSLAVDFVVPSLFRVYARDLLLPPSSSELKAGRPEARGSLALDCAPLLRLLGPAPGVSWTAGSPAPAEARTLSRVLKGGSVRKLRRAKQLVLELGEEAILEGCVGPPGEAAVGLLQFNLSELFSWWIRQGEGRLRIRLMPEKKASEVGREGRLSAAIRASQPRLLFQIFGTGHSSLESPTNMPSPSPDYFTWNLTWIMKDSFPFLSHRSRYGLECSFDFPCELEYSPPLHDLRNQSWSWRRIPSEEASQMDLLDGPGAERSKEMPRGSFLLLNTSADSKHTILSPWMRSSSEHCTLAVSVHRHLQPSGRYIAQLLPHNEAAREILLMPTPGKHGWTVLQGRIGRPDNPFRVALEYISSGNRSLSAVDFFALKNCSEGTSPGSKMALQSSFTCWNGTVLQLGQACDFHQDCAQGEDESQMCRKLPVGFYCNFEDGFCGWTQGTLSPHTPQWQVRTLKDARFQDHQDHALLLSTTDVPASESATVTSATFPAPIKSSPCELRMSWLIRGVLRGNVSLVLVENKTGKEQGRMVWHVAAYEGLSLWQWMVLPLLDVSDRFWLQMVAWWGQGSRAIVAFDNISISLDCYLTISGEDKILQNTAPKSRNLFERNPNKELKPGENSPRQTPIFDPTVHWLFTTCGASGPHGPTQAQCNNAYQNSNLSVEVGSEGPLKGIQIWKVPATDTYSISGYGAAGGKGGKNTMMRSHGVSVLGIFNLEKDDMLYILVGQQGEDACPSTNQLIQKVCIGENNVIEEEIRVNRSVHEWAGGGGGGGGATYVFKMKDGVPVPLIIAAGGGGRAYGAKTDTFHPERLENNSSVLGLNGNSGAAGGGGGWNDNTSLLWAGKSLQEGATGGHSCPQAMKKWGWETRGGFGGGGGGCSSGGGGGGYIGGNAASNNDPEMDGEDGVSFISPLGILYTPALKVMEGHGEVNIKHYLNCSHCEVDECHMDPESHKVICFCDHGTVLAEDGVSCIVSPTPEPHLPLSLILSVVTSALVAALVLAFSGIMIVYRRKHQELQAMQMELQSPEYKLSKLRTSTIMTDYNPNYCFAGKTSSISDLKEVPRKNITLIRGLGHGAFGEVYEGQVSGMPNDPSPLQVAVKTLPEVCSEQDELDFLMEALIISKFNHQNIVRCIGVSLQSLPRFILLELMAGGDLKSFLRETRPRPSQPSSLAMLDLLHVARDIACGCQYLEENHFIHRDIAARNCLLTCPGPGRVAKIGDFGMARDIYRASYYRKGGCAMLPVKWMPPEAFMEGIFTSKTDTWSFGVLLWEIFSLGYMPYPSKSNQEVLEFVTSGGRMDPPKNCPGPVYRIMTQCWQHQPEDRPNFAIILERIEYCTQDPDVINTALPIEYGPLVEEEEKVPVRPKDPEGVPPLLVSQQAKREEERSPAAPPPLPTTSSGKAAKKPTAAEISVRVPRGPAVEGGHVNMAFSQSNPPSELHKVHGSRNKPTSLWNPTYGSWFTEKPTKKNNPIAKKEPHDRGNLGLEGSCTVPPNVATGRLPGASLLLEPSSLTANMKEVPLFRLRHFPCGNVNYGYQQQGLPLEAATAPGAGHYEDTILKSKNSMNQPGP

Row | IC50 (ALK) [nM] | IC50 (Ros1) [nM] | IC50 (TrkA) [nM] | IC50 (TrkA-G595R) [nM] | IC50 (TrkA-G667C) [nM] | IC50 (TrkC) [nM] | GI50 (Ba/F3 LMNA-NTRK1-F589L) [nM] | GI50 (Ba/F3 LMNA-NTRK1-WT) [nM] | GI50 (Ba/F3 SLC34A2-ROS1-WT) [nM] | GI50 (BaF3 ETV6-NTRK3-WT) [nM] | GI50 (BaF3 LMNA-NTRK1-G595R) [nM] | GI50 (BaF3 LMNA-NTRK1-G667A) [nM] | GI50 (BaF3 ETV6-NTRK3-G623R) [nM] | Apparent clearance Cl ([1]; IV, 3 mg/kg) [mL/min/kg] | Apparent volume of distribution Vd ([1]; IV, 3 mg/kg) [L/kg] | Area under the curve AUC0-last ([1]; IV, 3 mg/kg) [µM·h] | Half-life T1/2 ([1]; IV, 3 mg/kg) [min] | Area under the curve AUC0-last ([1]; PO, 10 mg/kg) [µM·h] | Bioavailability F % ([1]; PO, 10 mg/kg) [%] | Time to peak Tmax ([1]; PO, 10 mg/kg) [min] | Structure (SMILES) | other results
1 | 51.3 | 0.1 | 1.8 | 0.9 | 2.9 | 0.1 | 15.8 | 1 | 50 | 2.2 | 7.4 | 7.3 | 12.9 | 19.0 | 1.3 | 6.19 | 54 | 9.696 | 49 | 78 | O=C1NC2(CC2)COc2ncc(F)cc2[C@H]2CCOCCN2c2ccn3ncc1c3n2 [WX009A] | Cmax ([1]; PO, 10 mg/kg): 2630 nM
2 | > 1000 | 4.8 | 0.7 | 0.3 | 0.1 | 0.1 | 189 | 1.5 | 900 | 3.2 | 8.4 | 2 | 14.2 | 32.9 | 1.3 | 3.818 | 36 | 6.637 | 53 | 30 | C[C@@H]1COc2ncc(F)cc2[C@H]2COC[C@@H](C)N2c2ccn3ncc(c3n2)C(=O)N1 [WX006] | Cmax ([1]; PO, 10 mg/kg): 3750 nM
3 | > 1000 | 12.8 | 0.7 | 0.2 | 0.1 | 0.1 | 204 | 1.6 | > 1000 | 1.8 | 5 | 2 | 8.6 | 44.0 | 1.4 | 2.748 | 30 | 2.282 | 25 | 30 | C[C@@H]1COC[C@@H]2c3cc(F)cnc3O[C@@H](C)CNC(=O)c3cnn4ccc(nc34)N12 [WX008] | Cmax ([1]; PO, 10 mg/kg): 1130 nM
